Results reported in the supplement of paper PMC10307832.

Experiments:
Test in all cases: relative viability (nuclei count vs DMSO), 5 days (fraction); higher = more cells survive
Olaparib + Crizotinib = compound: O=C(c1cc(Cc2n[nH]c(=O)c3ccccc23)ccc1F)N1CCN(C(=O)C2CC2)CC1 [Olaparib] + C[C@@H](Oc1cc(-c2cnn(C3CCNCC3)c2)cnc1N)c1c(Cl)ccc(F)c1Cl [Crizotinib] (partner 1 µM)
Summary of the method: (§1)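 Lung cancer cell lines were seeded in 1536-well plates and dosed by pin tool the next day, with either a single drug or a fixed anchor-drug dose combined with five library-drug doses (not always all listed) spaced in √10 steps. Five days later, one step fixed the cells and stained their nuclei (final 0.05% Triton X-100, 1% formaldehyde, 1 ug/ml Hoechst), and nuclei were counted on 4× images. Relative viability is the nuclei count in treated wells divided by the count in vehicle wells, and each value is the median of duplicate plates.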

Olaparib + Vorinostat = compound: O=C(c1cc(Cc2n[nH]c(=O)c3ccccc23)ccc1F)N1CCN(C(=O)C2CC2)CC1 [Olaparib] + O=C(CCCCCCC(=O)Nc1ccccc1)NO [Vorinostat] (partner 1 µM)
Summary of the method: as §1

Crizotinib + Dasatinib = compound: C[C@@H](Oc1cc(-c2cnn(C3CCNCC3)c2)cnc1N)c1c(Cl)ccc(F)c1Cl [Crizotinib] + Cc1nc(Nc2ncc(C(=O)Nc3c(C)cccc3Cl)s2)cc(N2CCN(CCO)CC2)n1 [Dasatinib] (partner 0.075 µM)
Summary of the method: as §1

Olaparib + Lapatinib = compound: O=C(c1cc(Cc2n[nH]c(=O)c3ccccc23)ccc1F)N1CCN(C(=O)C2CC2)CC1 [Olaparib] + CS(=O)(=O)CCNCc1ccc(-c2ccc3ncnc(Nc4ccc(OCc5cccc(F)c5)c(Cl)c4)c3c2)o1 [Lapatinib] (partner 2 µM)
Summary of the method: as §1

Cell Line	relative viability (Olaparib + Crizotinib; first compound 0.08 µM)	relative viability (Olaparib + Crizotinib; first compound 0.253 µM)	relative viability (Olaparib + Crizotinib; first compound 2.53 µM)	relative viability (Olaparib + Crizotinib; first compound 8 µM)	relative viability (Olaparib + Vorinostat; first compound 0.08 µM)	relative viability (Olaparib + Vorinostat; first compound 0.253 µM)	relative viability (Olaparib + Vorinostat; first compound 2.53 µM)	relative viability (Olaparib + Vorinostat; first compound 8 µM)	relative viability (Crizotinib + Dasatinib; first compound 0.01 µM)	relative viability (Crizotinib + Dasatinib; first compound 0.03162 µM)	relative viability (Crizotinib + Dasatinib; first compound 0.1 µM)	relative viability (Crizotinib + Dasatinib; first compound 1 µM)	relative viability (Crizotinib + Dasatinib; first compound 0.3162 µM)	relative viability (Olaparib + Lapatinib; first compound 0.08 µM)	relative viability (Olaparib + Lapatinib; first compound 0.253 µM)	relative viability (Olaparib + Lapatinib; first compound 2.53 µM)	relative viability (Olaparib + Lapatinib; first compound 8 µM)
NCI-H441	0.677	0.634	0.733	0.719	0.808	0.696	0.673	0.607	0.531	0.524	0.497	0.51					
ABC-1	1.57	1.04	1.19	0.961	1.13		1.08	1.07		0.534	0.54	0.616	0.501	1.01	1.07	1.02	1.25
NCI-H2170	1.23	1.15	1.4	1.11	0.811	0.754	0.748	0.748	0.642	0.506	0.566	0.624	0.481	0.29	0.259	0.269	0.279
NCI-H1944	1.06	0.926	0.814	0.676	0.534	0.423	0.399	0.367	0.193	0.22	0.207	0.203	0.179	0.781	0.663	0.668	0.627
PC-3 [JPC-3]	1	0.902	1.01	0.928	0.923		0.943	0.942	1.07	0.996	1.01	0.975	1.02	0.558	0.417	0.429	0.463
NCI-H1648					0.392	0.477		0.37									
NCI-H1975	1.04	0.906	0.945	0.916	0.739	0.649	0.717	0.624	0.347	0.381	0.349	0.43	0.387	0.999	0.844	0.808	0.786
NCI-H650	0.899	0.713	0.623	0.615	0.431	0.37	0.377	0.238	0.472	0.434	0.512	0.406	0.388	1.05	0.834	0.903	0.742
NCI-H1623									0.455	0.502	0.499	0.505	0.454				
NCI-H1755	0.957	0.824	0.904	0.728	0.748	0.588	0.704	0.637	0.407	0.46	0.454	0.413	0.273	1.15	0.916	1.08	0.967
NCI-H1666	1.09	0.777	0.685	0.602	1.06	0.957	0.981	0.836	0.808	0.797	0.741	0.863	0.77	0.845	0.633	0.577	0.532
NCI-H1792	1.03	0.82	0.843	0.794					0.706	0.829	0.733	0.936		0.895	0.738	0.82	0.779
CAL-12T	0.917	0.575	0.95	0.572	1.15	0.663	0.917	0.687	0.407	0.47	0.394	0.299		0.94	0.643	0.631	0.664
EPLC-272H	1.06	0.751	1.07	0.864	0.513	0.386	0.472	0.4	0.426	0.382	0.445	0.401	0.366	1.16	0.848	1.08	1.01
IA-LM	1.14	0.877	0.583	0.54	1.15	0.921	0.9	0.817						1.13	0.926	0.746	0.602
PC-14	0.883	0.824	0.849	0.657	0.889	0.579	0.709	0.34	0.286	0.241	0.245	0.238	0.201	0.368	0.319	0.298	0.307
NCI-H1703	1.07	0.734	0.903	0.522										1.63	1.03	1.29	1.04
NCI-H1437	1.07	0.814	0.903	0.618	0.945	0.746	0.695	0.639	0.376	0.435	0.403	0.396	0.301	0.801	0.652	0.717	0.599
NCI-H358	0.606	0.541	0.651	0.518	0.697	0.613	0.634	0.551	0.137	0.163	0.147	0.156	0.151	0.388	0.434	0.44	0.426
LK-2	0.177	0.181	0.192	0.186	0.391	0.341	0.345	0.268	0.369	0.338	0.253	0.285		0.985	0.935	0.92	0.941
H3255	0.901	0.913	0.885	0.814	0.859	0.722	0.904	0.757	0.381	0.462	0.422	0.258	0.393	0.229	0.245	0.256	0.219
NCI-H1355	1.17	1.01	1.02	0.923	0.683	0.645	0.638	0.641	0.736	0.823	0.733	0.65	0.598	1.13	0.863	1	0.944
LCLC-103H	1.15	1.04	1.04	0.985	0.936	0.762	0.801	0.678	0.479	0.418	0.416	0.484	0.497				

Cell Line	relative viability (Olaparib + Crizotinib; first compound 0.08 µM)	relative viability (Olaparib + Crizotinib; first compound 0.253 µM)	relative viability (Olaparib + Crizotinib; first compound 2.53 µM)	relative viability (Olaparib + Crizotinib; first compound 8 µM)	relative viability (Olaparib + Vorinostat; first compound 0.08 µM)	relative viability (Olaparib + Vorinostat; first compound 0.253 µM)	relative viability (Olaparib + Vorinostat; first compound 2.53 µM)	relative viability (Olaparib + Vorinostat; first compound 8 µM)	relative viability (Crizotinib + Dasatinib; first compound 0.01 µM)	relative viability (Crizotinib + Dasatinib; first compound 0.03162 µM)	relative viability (Crizotinib + Dasatinib; first compound 0.1 µM)	relative viability (Crizotinib + Dasatinib; first compound 1 µM)	relative viability (Crizotinib + Dasatinib; first compound 0.3162 µM)	relative viability (Olaparib + Lapatinib; first compound 0.08 µM)	relative viability (Olaparib + Lapatinib; first compound 0.253 µM)	relative viability (Olaparib + Lapatinib; first compound 2.53 µM)	relative viability (Olaparib + Lapatinib; first compound 8 µM)
NCI-H838	0.882	0.774	0.779	0.742	0.747	0.646	0.709	0.65	0.208	0.303	0.313	0.261	0.248	0.94	0.857	0.887	1.09
Calu-6	1.08	0.662	0.74	0.573										1.23	0.995	0.893	0.724
BEN	0.856	0.82	1	0.931	0.625	0.606	0.582	0.566	0.295	0.311	0.27	0.312	0.224	0.636	0.515	0.784	0.712
NCI-H1651	0.882	0.782	0.669	0.439	0.493	0.515	0.493	0.365	0.374	0.389	0.456	0.314	0.403	0.712	0.752	0.628	0.27
NCI-H2087	1.02	0.738	0.78	0.688	0.834	0.761	0.658	0.546	0.696	0.861	0.797	0.803		1.08	0.997	0.892	0.632
NCI-H520	0.739	0.695	0.781	0.477	0.822	0.684	0.554	0.341	0.19	0.192	0.2	0.155	0.271	1.08	0.795	0.725	0.525
NCI-H460	0.875	0.744	0.502	0.17	0.778	0.58	0.378	0.0953	0.358	0.521	0.478	0.479	0.424	1.28	0.874	0.679	0.172
SK-MES-1	0.982	0.89	0.885	0.668	1.04	0.985	1.06	0.914	0.385	0.373	0.418	0.341	0.312	0.537	0.491	0.501	0.433
NCI-H661	1.06	0.969	0.944	0.849	0.885	0.715	0.692	0.551	0.811		0.899	0.98	0.809	0.638	0.443	0.426	0.543
NCI-H1993	0.967	0.954	0.987	1.07	0.962	0.869	0.82	0.88		0.483	0.488	0.511	0.49	0.932	0.779	0.855	0.77
NCI-H23	0.673	0.444	0.492	0.274	0.957	0.542	0.434	0.256	0.763	0.83	0.645	0.742		1.32	0.791	0.679	0.485
LCLC-97TM1	0.409	0.35	0.365	0.305	1.08	0.63	0.615	0.599	0.827	0.763	0.784	0.846	0.816	1.21	0.947	0.565	0.438
NCI-H2342					0.771	0.699	0.66	0.653	0.302	0.334	0.303	0.291	0.349				
A549	0.884	0.654	0.777	0.358										1.21	0.833	0.983	0.666
EBC-1	0.206	0.178	0.203	0.186										0.247	0.235	0.236	0.201
NCI-H1395					0.775	0.501	0.516	0.419	0.388	0.376	0.409	0.358	0.391	0.98	0.661	0.839	0.435
NCI-H1299	1.06	0.903	0.986	0.95										1.01	0.927	0.949	0.963
NCI-H522					1.04	0.812	0.797	0.758	0.945		0.875	0.944	0.938				
SW 900					0.462	0.446	0.443	0.515	0.449	0.518	0.763	0.633	0.597				
NCI-H1563	0.867	0.813	0.896	0.826					0.462	0.443	0.453	0.461	0.444	0.975	0.999	0.992	0.92
ChaGo-K-1	1.26	1.06	1.31	0.862	0.815	0.665	0.63	0.416	0.58	0.573	0.487	0.624	0.424				
HCC-44	0.914	0.729	0.841	0.825	1.12	1.06	1.22	1.16						1.02	0.946	1.11	1.05
